Laboratory results reported in a compilation of properties of binary mixtures (doi:10.1016/j.fluid.2019.112324).

Assay: xn = mol fraction of the nth substance listed
Conditions: 100 kPa

CCCCCC[n+]1ccn(C)c1.O=[N+]([O-])[O-] + CCCC(C)O
viscosity [mPa·s]
Conditions | 293.15 K | 298.15 K | 303.15 K | 308.15 K | 313.15 K | 318.15 K | 323.15 K
x1 = 0.0814 | 8.28 | 6.18 | – | 3.48 | – | 2.12 | –
x1 = 0.1609 | 14.69 | – | 7.26 | 5.08 | 3.72 | 2.81 | 2.11
x1 = 0.2408 | – | 16.18 | 11.09 | 7.43 | 5.31 | 3.76 | 2.74
x1 = 0.3491 | 42.8 | 29 | 19.05 | 12.22 | 8.55 | 5.85 | 4.09
x1 = 0.4393 | 69 | 44.8 | 29.4 | 18.45 | 12.22 | 8.65 | 6.05
x1 = 0.5608 | 122.5 | 79.4 | 50.9 | 32 | 21.2 | 14.52 | 10.28
x1 = 0.6509 | 177 | 117.2 | 76.9 | 49.3 | 33 | 22.4 | –
x1 = 0.7401 | – | 173.4 | – | – | 50.1 | 34.9 | 25.8
x1 = 0.8508 | – | 285 | 189 | 125.3 | 85.7 | 61.8 | 47.3
x1 = 0.9393 | 614 | 416 | 282 | 195 | 136.2 | 99.7 | 76.9
x1 = 1 | 804 | 545 | 369 | 258 | 186 | 140.2 | –

CCCC(C)O (configuration not stated) + CCCCCC[n+]1ccn(C)c1.O=[N+]([O-])[O-]
x2 = 0
Conditions | viscosity [mPa·s]
293.15 K | 3.97
298.15 K | 3.32
303.15 K | 2.81
308.15 K | 2.37
313.15 K | 1.99
318.15 K | 1.66
